Key:
[1] = tested on: HIV-1 mutant strain E138K; assay: microbe, parasite or virus in culture; type: cell-based; details: Human immunodeficiency virus 1, MT4, read-out: EC50 E138K
[2] = tested on: HIV-1 mutant strain L100I; assay: microbe, parasite or virus in culture; type: cell-based; details: Human immunodeficiency virus 1, MT4, read-out: EC50 L100I
[3] = tested on: HIV-1 mutant strain Y188L; assay: microbe, parasite or virus in culture; type: cell-based; details: Human immunodeficiency virus 1, MT4, read-out: EC50 Y188L
WT HIV-1 (IIIB) = assay: microbe, parasite or virus in culture; type: cell-based; details: for EC50: Human immunodeficiency virus 1, IIIB, MT4, read-out: EC50 IIIB; for SI IIIB: ratio of CC50/EC50, IIIB
[4] = tested on: HIV-1 RES056 (K103N/Y181C); assay: microbe, parasite or virus in culture; type: cell-based; details: for EC50: Human immunodeficiency virus 1, MT4, read-out: EC50 RES056; for SI RES056: ratio of CC50/EC50, RES056
[5] = Cytotoxicity in mock-infected MT-4 cells; details: human
[6] = tested on: HIV-1 double mutant strain F227L/V106A; assay: microbe, parasite or virus in culture; type: cell-based; details: Human immunodeficiency virus 1, MT4, read-out: EC50 F227L/V106A
[7] = tested on: HIV-1 mutant strain Y181C; assay: microbe, parasite or virus in culture; type: cell-based; details: Human immunodeficiency virus 1, MT4, read-out: EC50 Y181C
[8] = tested on: HIV-1 mutant strain K103N; assay: microbe, parasite or virus in culture; type: cell-based; details: Human immunodeficiency virus 1, MT4, read-out: EC50 K103N

SMILES | EC50 [1] [nM] | EC50 [2] [nM] | EC50 [3] [nM] | EC50 (WT HIV-1 (IIIB)) [nM] | SI IIIB (WT HIV-1 (IIIB)) | EC50 [4] [nM] | SI RES056 [4] | CC50 at 5 days [5] [nM] | EC50 [6] [nM] | EC50 [7] [nM] | EC50 [8] [nM]
COP(=O)(OC)c1ccc(CN2CCC(Nc3nc(Oc4c(C)cc(/C=C/C#N)cc4C)c4sccc4n3)CC2)cc1 [15b, Dimethyl (E)-(4-((4-((4-(4-(2-cyanovinyl)-2,6-dimethylphenoxy)thieno[3,2-d]pyrimidin-2-yl)amino)piperidin-1-yl)methyl)phenyl)phosphonate] | 64.5 ± 31.7 | 85.7 ± 28 | 478 ± 158 | 19.1 ± 13.9 | 1827 | 603 ± 139 | 58 | 34900 ± 2860 | 129 ± 83.3 | 193 ± 74.8 | 13 ± 3.8
Cc1cc(C#N)cc(C)c1Oc1nc(NC2CCN(Cc3ccc(P(=O)(OCC(C)C)OCC(C)C)cc3)CC2)nc2ccsc12 [9h, Diisobutyl (4-((4-((4-(4-cyano-2,6-dimethylphenoxy)thieno[3,2-d]pyrimidin-2-yl)amino)piperidin-1-yl)methyl)phenyl)phosphonate] | 124 ± 31.4 | 135 ± 28.4 | 174 ± 94.9 | 90.9 ± 50.8 | 97 | 13200 | 1 | 8780 ± 9120 | 104 ± 53.1 | 182 ± 40.5 | 53.3 ± 19
Cc1cc(/C=C/C#N)cc(C)c1Oc1nc(NC2CCN(Cc3ccc(P(=O)(OCC(F)(F)F)OCC(F)(F)F)cc3)CC2)nc2ccsc12 [15e, Bis(2,2,2-trifluoroethyl) (E)-(4-((4-((4-(4-(2-cyanovinyl)-2,6-dimethylphenoxy)thieno[3,2-d]pyrimidin-2-yl)amino)piperidin-1-yl)methyl)phenyl)phosphonate] | 423 ± 149 | 140 ± 50.5 | 497 ± 49.2 | 138 ± 55.8 | 113 | 747 ± 242 | 21 | 15600 ± 2670 | 338 ± 37.1 | 584 ± 272 | 139 ± 65.7
Cc1cc(C#N)cc(C)c1Oc1nc(NC2CCN(Cc3ccc(P(=O)(OC(C)(C)C)OC(C)(C)C)cc3)CC2)nc2ccsc12 [9g, Di-tert-butyl (4-((4-((4-(4-cyano-2,6-dimethylphenoxy)thieno[3,2-d]pyrimidin-2-yl)amino)piperidin-1-yl)methyl)phenyl)phosphonate] | 179 ± 19.8 | 310 ± 57.8 | 445 ± 157 | 99.3 ± 37 | 164 | > 16300 | <1 | 16300 ± 4280 | 637 ± 492 | 719 ± 263 | 124 ± 26.2
Cc1cc(C#N)cc(C)c1Oc1nc(NC2CCN(Cc3ccc(P(=O)(O)O)cc3)CC2)nc2ccsc12 [compound 10, (4-((4-((4-(4-Cyano-2,6-dimethylphenoxy)thieno[3,2-d]pyrimidin-2-yl)amino)piperidin-1-yl)methyl)phenyl)phosphonic acid] | 160000 | > 227000 | > 227000 | 16500 | >14 | > 227000 | <1 | > 227000 | > 227000 | > 227000 | 147000
CCCCOP(=O)(OCCCC)c1ccc(CN2CCC(Nc3nc(Oc4c(C)cc(C#N)cc4C)c4sccc4n3)CC2)cc1 [9d, Dibutyl (4-((4-((4-(4-cyano-2,6-dimethylphenoxy)thieno[3,2-d]pyrimidin-2-yl)amino)piperidin-1-yl)methyl)phenyl)phosphonate] | 241 ± 34.9 | 230 ± 54 | 240 ± 58.3 | 125 ± 39 | 62 | 6500 ± 483 | 1 | 7800 ± 1530 | 248 ± 37.3 | 311 ± 50.4 | 196 ± 13.6
Cc1cc(/C=C/C#N)cc(C)c1Oc1nc(NC2CCN(Cc3ccc(P(=O)(OC(C)C)OC(C)C)cc3)CC2)nc2ccsc12 [15f, Diisopropyl (E)-(4-((4-((4-(4-(2-cyanovinyl)-2,6-dimethylphenoxy)thieno[3,2-d]pyrimidin-2-yl)amino)piperidin-1-yl)methyl)phenyl)phosphonate] | 162 ± 35.8 | 56.1 ± 13.2 | 195 ± 32.3 | 29.2 ± 9.12 | 152 | 401 ± 321 | 11 | 4450 ± 570 | 79.3 ± 13 | 156 ± 59 | 41 ± 7.63
CCOP(=O)(OCC)c1ccc(CN2CCC(Nc3nc(Oc4c(C)cc(/C=C/C#N)cc4C)c4sccc4n3)CC2)cc1 [15c, Diethyl (E)-(4-((4-((4-(4-(2-cyanovinyl)-2,6-dimethylphenoxy)thieno[3,2-d]pyrimidin-2-yl)amino)piperidin-1-yl)methyl)phenyl)phosphonate] | 56.6 ± 19.1 | 20.1 ± 10.8 | 62.4 ± 22.7 | 26.4 ± 15.1 | 309 | 110 ± 27.2 | 74 | 8150 ± 640 | 27.1 ± 10.7 | 44.1 ± 25.6 | 15.5 ± 1.21
Cc1cc(C#N)cc(C)c1Oc1nc(NC2CCN(Cc3ccc(P(=O)(OC(C)C)OC(C)C)cc3)CC2)nc2ccsc12 [9f, Diisopropyl (4-((4-((4-(4-cyano-2,6-dimethylphenoxy)thieno[3,2-d]pyrimidin-2-yl)amino)piperidin-1-yl)methyl)phenyl)phosphonate] | 41.3 ± 15.3 | 29.5 ± 14.2 | 42 ± 11.7 | 24.8 ± 14.8 | 4476 | 514 ± 57.1 | 216 | 111000 ± 33600 | 28.4 ± 13.4 | 73.5 ± 69.4 | 22.6 ± 7.83
Cc1cc(/C=C/C#N)cc(C)c1Oc1nc(NC2CCN(Cc3ccc(P(=O)(OCC(C)C)OCC(C)C)cc3)CC2)nc2ccsc12 [15h, Diisobutyl (E)-(4-((4-((4-(4-(2-cyanovinyl)-2,6-dimethylphenoxy)thieno[3,2-d]pyrimidin-2-yl)amino)piperidin-1-yl)methyl)phenyl)phosphonate] | 758 ± 249 | 712 ± 158 | 860 ± 218 | 151 ± 48.4 | 109 | 2200 ± 360 | 8 | 16500 ± 2050 | 886 ± 167 | 1120 ± 106 | 239 ± 27
Cc1cc(/C=C/C#N)cc(C)c1Oc1nc(NC2CCN(Cc3ccc(P(=O)(OC(C)(C)C)OC(C)(C)C)cc3)CC2)nc2ccsc12 [15g, Di-tert-butyl (E)-(4-((4-((4-(4-(2-cyanovinyl)-2,6-dimethylphenoxy)thieno[3,2-d]pyrimidin-2-yl)amino)piperidin-1-yl)methyl)phenyl)phosphonate] | 59.7 ± 13.1 | 25.8 ± 15.8 | 55.3 ± 22.2 | 20.6 ± 8.31 | 359 | 197 ± 30.5 | 38 | 7400 ± 2250 | 43.7 ± 7.52 | 46.4 ± 7.56 | 16.9 ± 7.68
CCCCOP(=O)(OCCCC)c1ccc(CN2CCC(Nc3nc(Oc4c(C)cc(/C=C/C#N)cc4C)c4sccc4n3)CC2)cc1 [15d, Dibutyl (E)-(4-((4-((4-(4-(2-cyanovinyl)-2,6-dimethylphenoxy)thieno[3,2-d]pyrimidin-2-yl)amino)piperidin-1-yl)methyl)phenyl)phosphonate] | 678 ± 196 | 265 ± 84.4 | 714 ± 157 | 173 ± 54 | 71 | 1430 ± 173 | 9 | 12200 ± 3910 | 495 ± 168 | 779 ± 316 | 188 ± 17
